Assay results as given in ChEMBL document CHEMBL6083201, “Identification of triazolyl KAT6 inhibitors via a templated fragment approach” (Bioorg Med Chem Lett, 2024).
pIC50: −log10 of the molar value.

Molecular target: Histone acetyltransferase KAT6A (Homo sapiens, UniProt Q92794)
Experiment: Inhibition of KAT6A (unknown origin)

Sequence of Histone acetyltransferase KAT6A (Q92794 whole entry): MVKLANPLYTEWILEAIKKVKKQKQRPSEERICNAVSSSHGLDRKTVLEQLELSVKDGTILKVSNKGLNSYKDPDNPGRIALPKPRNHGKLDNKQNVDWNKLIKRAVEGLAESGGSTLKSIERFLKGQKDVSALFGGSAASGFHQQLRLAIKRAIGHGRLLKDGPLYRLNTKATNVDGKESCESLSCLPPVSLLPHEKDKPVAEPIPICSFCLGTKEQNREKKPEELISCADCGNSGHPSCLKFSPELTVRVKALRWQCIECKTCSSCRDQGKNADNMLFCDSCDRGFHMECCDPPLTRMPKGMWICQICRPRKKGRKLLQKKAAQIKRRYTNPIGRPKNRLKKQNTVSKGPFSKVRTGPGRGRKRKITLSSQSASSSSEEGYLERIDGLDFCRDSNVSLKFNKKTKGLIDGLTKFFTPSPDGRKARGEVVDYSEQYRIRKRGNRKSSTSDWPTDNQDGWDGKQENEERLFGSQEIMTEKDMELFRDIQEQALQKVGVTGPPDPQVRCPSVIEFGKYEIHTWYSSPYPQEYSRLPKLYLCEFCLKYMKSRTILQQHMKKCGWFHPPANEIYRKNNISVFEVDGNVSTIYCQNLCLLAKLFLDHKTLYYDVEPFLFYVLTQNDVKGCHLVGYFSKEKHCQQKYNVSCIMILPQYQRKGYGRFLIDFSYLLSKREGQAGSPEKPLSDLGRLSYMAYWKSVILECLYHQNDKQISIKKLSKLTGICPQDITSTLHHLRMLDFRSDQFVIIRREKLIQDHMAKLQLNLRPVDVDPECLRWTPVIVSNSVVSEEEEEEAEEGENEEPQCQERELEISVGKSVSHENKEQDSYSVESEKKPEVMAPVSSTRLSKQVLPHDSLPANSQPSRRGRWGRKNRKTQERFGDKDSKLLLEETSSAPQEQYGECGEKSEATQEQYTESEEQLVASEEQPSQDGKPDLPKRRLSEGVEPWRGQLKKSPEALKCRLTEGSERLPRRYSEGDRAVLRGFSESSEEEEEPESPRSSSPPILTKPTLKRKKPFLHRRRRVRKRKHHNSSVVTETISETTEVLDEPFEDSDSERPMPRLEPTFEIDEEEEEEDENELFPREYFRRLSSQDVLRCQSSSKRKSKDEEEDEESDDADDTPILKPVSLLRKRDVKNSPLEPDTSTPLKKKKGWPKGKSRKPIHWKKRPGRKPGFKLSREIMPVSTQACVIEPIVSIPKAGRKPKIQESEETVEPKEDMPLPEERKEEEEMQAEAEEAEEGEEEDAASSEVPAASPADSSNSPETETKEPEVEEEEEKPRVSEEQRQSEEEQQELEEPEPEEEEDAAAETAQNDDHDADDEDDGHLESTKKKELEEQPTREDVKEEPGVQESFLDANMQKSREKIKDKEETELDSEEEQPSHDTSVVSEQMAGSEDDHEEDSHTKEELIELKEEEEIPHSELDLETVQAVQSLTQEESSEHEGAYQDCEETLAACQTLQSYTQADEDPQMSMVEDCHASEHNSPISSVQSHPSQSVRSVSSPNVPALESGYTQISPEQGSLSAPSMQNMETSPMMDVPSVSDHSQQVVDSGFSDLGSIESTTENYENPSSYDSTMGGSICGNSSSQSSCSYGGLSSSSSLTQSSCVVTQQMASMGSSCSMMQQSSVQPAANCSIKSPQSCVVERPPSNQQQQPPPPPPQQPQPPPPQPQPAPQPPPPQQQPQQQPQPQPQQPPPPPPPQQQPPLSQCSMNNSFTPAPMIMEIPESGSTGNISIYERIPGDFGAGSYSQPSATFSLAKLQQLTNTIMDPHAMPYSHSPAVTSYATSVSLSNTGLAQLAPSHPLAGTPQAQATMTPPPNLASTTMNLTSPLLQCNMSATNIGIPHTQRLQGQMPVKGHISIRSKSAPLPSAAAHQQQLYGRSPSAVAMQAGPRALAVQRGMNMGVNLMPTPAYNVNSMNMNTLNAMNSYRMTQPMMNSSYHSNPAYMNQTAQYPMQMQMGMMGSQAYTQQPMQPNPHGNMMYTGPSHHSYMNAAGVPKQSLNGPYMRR

COc1ccc(C2=CCN(C)CC2)cc1-n1cc(NS(=O)(=O)c2ccccc2)nn1
pIC50: < 4.00
